Experimental data published in US8551721B2, “Bioluminescent detection of cyanohydroxy benzothiazole compounds” (Promega Corporation, priority 2008, dated 2013).

Experiments:
Type in all cases: biochemical
UGT 1A9 = molecular target: T1, UGT 1A9 (Homo sapiens, UniProt O60656); test: UGT activity: utilization of substrate by recombinant UGT 1A9 Supersomes; details: 2 hour incubation at 37° C., plus vs minus UDPGA, background corrected
T1 construct: purchased BD Gentest; host or cells: insect cells (microsomes)
T1 sequence (O60656 26-530): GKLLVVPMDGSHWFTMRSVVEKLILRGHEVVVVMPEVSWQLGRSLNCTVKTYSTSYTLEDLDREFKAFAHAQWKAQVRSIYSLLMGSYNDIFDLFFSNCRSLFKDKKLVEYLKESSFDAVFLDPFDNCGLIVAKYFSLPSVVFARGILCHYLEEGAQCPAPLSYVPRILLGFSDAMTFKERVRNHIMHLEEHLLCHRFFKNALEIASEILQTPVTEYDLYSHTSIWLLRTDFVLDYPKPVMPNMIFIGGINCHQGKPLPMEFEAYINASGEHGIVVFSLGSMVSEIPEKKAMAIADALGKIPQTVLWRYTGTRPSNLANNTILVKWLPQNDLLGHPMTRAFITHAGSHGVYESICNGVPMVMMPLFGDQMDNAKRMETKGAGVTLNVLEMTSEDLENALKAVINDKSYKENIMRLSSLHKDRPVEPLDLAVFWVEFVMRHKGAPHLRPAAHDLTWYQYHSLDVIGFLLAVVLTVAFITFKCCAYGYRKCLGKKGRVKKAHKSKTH
Procedure: (§1) The invention includes a method of determining activity of the uridine 5′-diphospho-glucuronosyltransferase (UDP-glucuronosyltransferase, or UGT) family enzymes in vitro. Briefly, UGT enzymes from overexpressed insect microsomes (Supersomes™, BD Gentest™) or animal tissue microsomes (Xenotech, BD Gentest™) were incubated with a cyanobenzothiazole substrate of the invention and the cofactor UDP-glucuronic acid (UDPGA) at 37° C. in buffer at physiological pH containing MgCl2 and alamethicin (typically, 50 mM TES, pH 7.5, 8 mM MgCl2, 4 mM UDPGA (Sigma) and 25 μg/mL alamethicin (Sigma)). Following the UGT enzyme reaction, an equal volume of P450-Glo Luciferin Detection Reagent (Promega) containing 15-30 mM D-cysteine-HCl.H2O (Sigma) was added and the plate was mixed and incubated at room temperature, typically for 20-30 minutes. […]
(§2) During this incubation, the cysteine reacts with the cyanobenzathiozole substrate to yield a D-luciferin derivative. […] Therefore, activity of the UGT enzyme can be measured by analyzing the difference (lower or no output) in relative light units (RLU) of a sample in which glucuronidation occurs compared to a sample that was run under the same conditions with no added UDPGA cofactor. […]
(§3) Reactions were assembled in a white 96-well plate. […] After the incubation was completed, the plate was read on a Veritas™ luminometer (Turner BioSystems, Inc.; Sunnyvale, Calif.). […]

UGT 1A3 = molecular target: T2, UGT 1A3 (Homo sapiens, UniProt P35503); test: UGT activity: utilization of substrate by recombinant UGT 1A3 Supersomes; details: 2 hour incubation at 37° C., plus vs minus UDPGA
T2 construct: purchased BD Gentest; host or cells: insect cells (microsomes)
T2 sequence (P35503 29-534): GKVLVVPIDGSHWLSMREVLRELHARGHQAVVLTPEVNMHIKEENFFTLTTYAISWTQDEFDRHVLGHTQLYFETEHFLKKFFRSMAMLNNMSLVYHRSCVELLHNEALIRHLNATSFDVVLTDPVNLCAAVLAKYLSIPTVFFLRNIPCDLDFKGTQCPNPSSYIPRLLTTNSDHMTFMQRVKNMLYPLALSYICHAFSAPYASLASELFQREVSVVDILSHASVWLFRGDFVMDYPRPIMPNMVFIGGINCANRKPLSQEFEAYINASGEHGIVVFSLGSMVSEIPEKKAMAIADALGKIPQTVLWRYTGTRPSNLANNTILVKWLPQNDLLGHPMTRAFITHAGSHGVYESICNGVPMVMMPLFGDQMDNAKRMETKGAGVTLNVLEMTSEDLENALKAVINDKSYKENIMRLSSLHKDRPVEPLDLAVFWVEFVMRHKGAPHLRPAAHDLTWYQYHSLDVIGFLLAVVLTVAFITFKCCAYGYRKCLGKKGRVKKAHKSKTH
Procedure: as §1, §2, §3

UGT 1A4 = molecular target: T3, UGT 1A4 (Homo sapiens, UniProt P22310); test: UGT activity: utilization of substrate by recombinant UGT 1A4 Supersomes; details: 2 hour incubation at 37° C., plus vs minus UDPGA
T3 construct: purchased BD Gentest; host or cells: insect cells (microsomes)
T3 sequence (P22310 29-534): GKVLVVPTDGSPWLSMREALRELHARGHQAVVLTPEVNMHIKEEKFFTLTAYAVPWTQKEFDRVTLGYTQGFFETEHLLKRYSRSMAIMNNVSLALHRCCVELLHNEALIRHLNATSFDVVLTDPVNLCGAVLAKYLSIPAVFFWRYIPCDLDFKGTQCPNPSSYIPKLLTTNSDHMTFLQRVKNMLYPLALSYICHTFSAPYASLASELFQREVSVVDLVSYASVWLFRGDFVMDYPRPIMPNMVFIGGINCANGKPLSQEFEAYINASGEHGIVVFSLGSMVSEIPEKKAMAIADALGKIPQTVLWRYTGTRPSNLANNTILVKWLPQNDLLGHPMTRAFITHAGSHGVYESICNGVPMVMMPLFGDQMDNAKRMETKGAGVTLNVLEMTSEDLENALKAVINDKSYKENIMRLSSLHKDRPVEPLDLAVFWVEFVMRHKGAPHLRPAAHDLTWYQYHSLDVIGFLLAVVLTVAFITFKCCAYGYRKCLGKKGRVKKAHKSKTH
Procedure: The invention includes a method of determining activity of the uridine 5′-diphospho-glucuronosyltransferase (UDP-glucuronosyltransferase, or UGT) family enzymes in vitro. Briefly, UGT enzymes from overexpressed insect microsomes (Supersomes™, BD Gentest™) or animal tissue microsomes (Xenotech, BD Gentest™) were incubated with a cyanobenzothiazole substrate of the invention and the cofactor UDP-glucuronic acid (UDPGA) at 37° C. in buffer at physiological pH containing MgCl2 and alamethicin (typically, 50 mM TES, pH 7.5, 8 mM MgCl2, 4 mM UDPGA (Sigma) and 25 μg/mL alamethicin (Sigma)). Following the UGT enzyme reaction, an equal volume of P450-Glo Luciferin Detection Reagent (Promega) containing 15-30 mM D-cysteine-HCl.H2O (Sigma) was added and the plate was mixed and incubated at room temperature, typically for 20-30 minutes. P450-Glo Luciferin Detection Reagent can be prepared by dissolving a vial of Promega Luciferin Detection Reagent (Promega Part #V859B) with a vial of Promega P450-Glo Buffer (Promega Part #V865B).
During this incubation, the cysteine reacts with the cyanobenzathiozole substrate to yield a D-luciferin derivative. […] Therefore, activity of the UGT enzyme can be measured by analyzing the difference (lower or no output) in relative light units (RLU) of a sample in which glucuronidation occurs compared to a sample that was run under the same conditions with no added UDPGA cofactor.
In this example, a series of 12 recombinant UGTs expressed in insect microsomes (Supersomes™, BD Gentest™), as well as the control microsomes not expressing the UGT enzyme, were incubated with compound 3138, compound 3478, or compound 3165 as substrates, with or without the UDPGA co-factor. […]
as §3

Structure (SMILES)	% utilization by UGT 1A9 (UGT 1A9)	utilization by UGT 1A3 (in words) (UGT 1A3)	utilization by UGT 1A4 (in words) (UGT 1A4)
Cc1cc(O)cc2sc(C3=NC(C(=O)O)CS3)nc12 (stereo not drawn) [compound 3478]	≤ 15%	only UGT 1A6 was able to utilize compound 3478 to any appreciable extent	did not utilize either compound 3138 or 3478 to an appreciable extent
Cc1cc(O)cc2sc(C#N)nc12 [compound 3138]	over 50%	detectable levels of utilization above background	did not utilize either compound 3138 or 3478 to an appreciable extent
